{"source": "patent US10322097B2", "about": "“Treatment of subjects with multidrug-resistant cancer” (priority 2015, dated 2019)", "key": {"[1]": {"test_system": "A549 taxol-resistant lung cancer cells", "assay": "Annexin V flow cytometry analysis of cell death", "format": "cell-based, human", "conditions": "24 h", "description": "Annexin V flow cytometry analysis has been carried out. Cell death and viability were measured using an Annexin V staining kit (BD Biosciences, San Jose, Calif., USA).\nBriefly, A549 taxol-resistant cancer cells were treated with 0.1-0.5 μM celastrol with or without 40 μM of taxol for 24 h. Cells were then harvested and analysed by multiparametric flow cytometry using FITC-Annexin V and propidium iodide staining (BD Biosciences, San Jose, Calif., USA) according to the manufacturer's instructions. Flow cytometry was then carried out using a FACSCalibur flow cytometer (BD Biosciences, San Jose, Calif., USA). Data acquisition and analysis was performed with CellQuest (BD Biosciences, San Jose, Calif., USA). Data were obtained from three independent experiments."}, "[2]": {"test_system": "HCT116 p53+/+ colon cancer cells", "assay": "MTT cytotoxicity assay, HCT116 p53+/+", "format": "cell-based", "conditions": "Homo sapiens, HCT-116, 72 h, read-out: IC50 HCT116 p53+/+ colon cancer cells", "description": "(§1) Cell cultures and cytotoxicity assays have been used. Celastrol was dissolved in DMSO at a final concentration of 100 mmol/L and stored at −20° C. Cytotoxicity was assessed using the 3-(4,5-dimethylthiazol-2-yl)-2,5-diphenyltetrazolium bromide assay. 4000 cells from HCT116 p53^+/+ or p53^−/− colon cancer cells and DLD-1 Bax-Bak^+/+ or Bax-Bak^−/− colon cancer cells were seeded on 96-well plates per well. […] Subsequently, 10 μL of MTT reagents were added to each well and incubated at 37° C. for 4 hours followed by the addition of 100 μL solubilization buffer (10% SDS in 0.01 mol/L HCl) and overnight incubation. […] The percentage of cell viability was calculated using the following formula: Cell viability (%)=Cells number treated/Cells number DMSO control×100. Data were obtained from three independent experiments."}, "[3]": {"test_system": "MCF-7 (Breast) taxol sensitive cancer cells", "assay": "MTT cytotoxicity assay, MCF-7 taxol sensitive", "format": "cell-based", "conditions": "Homo sapiens, MCF7, 72 h, read-out: IC50 MCF-7 (Breast) (Taxol sensitive)", "description": "(§2) Cell cultures and cytotoxicity assays have been used. Celastrol was dissolved in DMSO at a final concentration of 100 mmol/L and stored at −20° C. Cytotoxicity was assessed using the 3-(4,5-dimethylthiazol-2-yl)-2,5-diphenyltetrazolium bromide assay. 4000 cells from A549 (lung), A2780 (ovary), HCT-8 (colon) and MCF-7 (breast) cancer cells were seeded on 96-well plates per well. After overnight pre-incubation, the cells were exposed to different concentrations of celastrol (0.039-100 μmol/L) or taxol for 3 days. Subsequently, 10 μL of MTT reagents was added to each well and incubated at 37° C. for 4 hours followed by the addition of 100 μL solubilization buffer (10% SDS in 0.01 mol/L HCl) and overnight incubation. Absorbance at 585 nm was determined from each well the next day. The percentage of cell viability was calculated using the following formula: Cell viability (%)=Cells number treated/Cells number DMSO control×100. Data were obtained from three independent experiments."}, "[4]": {"test_system": "DLD-1 Bax-Bak-/- colon cancer cells", "assay": "MTT cytotoxicity assay, DLD-1 Bax-Bak-/-", "format": "cell-based", "description": "as §1"}, "[5]": {"test_system": "DLD-1 Bax-Bak+/+ colon cancer cells", "assay": "MTT cytotoxicity assay, DLD-1 Bax-Bak+/+", "format": "cell-based", "conditions": "Homo sapiens, DLD-1, 72 h, read-out: IC50 DLD-1 Bax-Bak+/+ colon cancer cells", "description": "as §1"}, "[6]": {"test_system": "HCT116 p53-/- colon cancer cells", "assay": "MTT cytotoxicity assay, HCT116 p53-/-", "format": "cell-based", "description": "as §1"}, "[7]": {"test_system": "HEK293/ABCB5 kidney cells", "assay": "MTT cytotoxicity assay, HEK293/ABCB5", "format": "cell-based", "description": "as §2, with “from HEK293” for “from A549 (lung), A2780 (ovary), HCT-8 (colon)”, “and HEK293/ABCB5 kidney cancer cells or MDA-MB-231 pcDNA and MDA-MB-231/BCRP breast” for “and MCF-7 (breast)”, “celastrol (0.1-10” for “celastrol (0.039-100”, “μmol/L)” for “μmol/L) or taxol”, “reagents were” for “reagents was”"}, "[8]": {"test_system": "A2780 (Ovary) taxol sensitive cancer cells", "assay": "MTT cytotoxicity assay, A2780 taxol sensitive", "format": "cell-based", "conditions": "Homo sapiens, A2780, 72 h, read-out: IC50 A2780 (Ovary) (Taxol sensitive)", "description": "as §2"}, "[9]": {"test_system": "SGC-7901 (Gastric) cisplatin sensitive cancer cells", "assay": "MTT cytotoxicity assay, SGC-7901 cisplatin sensitive", "format": "cell-based, human", "conditions": "Homo sapiens, SGC-7901, 72 h, read-out: IC50 SGC-7901 (Gastric) (Cisplatin sensitive)", "description": "as §2, with “from” for “from A549 (lung),”, “A2780 cisplatin sensitive/resistant ovarian cancer cells or SGC-7901 cisplatin sensitive/resistant gastric” for “A2780 (ovary), HCT-8 (colon) and MCF-7 (breast)”, “or cisplatin” for “or taxol”, “reagents were” for “reagents was”"}, "[10]": {"test_system": "A2780 (Ovary) cisplatin sensitive cancer cells", "assay": "MTT cytotoxicity assay, A2780 cisplatin sensitive", "format": "cell-based, human", "conditions": "Homo sapiens, A2780, 72 h, read-out: IC50 A2780 (Ovary) (Cisplatin sensitive)", "description": "as §2, with “from” for “from A549 (lung),”, “A2780 cisplatin sensitive/resistant ovarian cancer cells or SGC-7901 cisplatin sensitive/resistant gastric” for “A2780 (ovary), HCT-8 (colon) and MCF-7 (breast)”, “or cisplatin” for “or taxol”, “reagents were” for “reagents was”"}}}
{"molecule": "CC1=C(O)C(=O)C=C2C1=CC=C1[C@@]2(C)CC[C@@]2(C)[C@@H]3C[C@](C)(C(=O)O)CC[C@]3(C)CC[C@]12C", "note": "[Celastrol, celastrol]", "values": [{"measurement": "cytotoxicity (cell death, Annexin V)", "setting": "[1]; 0.1-0.5 μM celastrol alone", "value": "limited cytotoxicity"}, {"measurement": "taxol-mediated cytotoxicity (cell death, Annexin V) on co-treatment", "setting": "[1]; 0.1-0.5 μM celastrol with 40 μM taxol", "value": "significantly enhanced"}, {"measurement": "IC50", "setting": "[2]", "value": 0.831, "unit": "µM"}, {"measurement": "IC50", "setting": "[3]", "value": 1.12, "unit": "µM"}, {"measurement": "IC50", "setting": "[4]; Homo sapiens, DLD-1, 72 h, read-out: IC50 DLD-1 Bax-Bak-/- colon cancer cells", "value": 0.184, "unit": "µM"}, {"measurement": "Resistant Factor", "setting": "[4]; IC50 DLD-1 Bax-Bak-/- divided by IC50 DLD-1 Bax-Bak+/+", "value": 0.32}, {"measurement": "IC50", "setting": "[5]", "value": 0.575, "unit": "µM"}, {"measurement": "IC50", "setting": "[6]; Homo sapiens, HCT-116, 72 h, read-out: IC50 HCT116 p53-/- colon cancer cells", "value": 0.484, "unit": "µM"}, {"measurement": "Resistant Factor", "setting": "[6]; IC50 HCT116 p53-/- divided by IC50 HCT116 p53+/+", "value": 0.58}, {"measurement": "IC50", "setting": "[7]; Homo sapiens, HEK293, 72 h, MTT, 3 days", "value": 3.45, "unit": "µM"}, {"measurement": "Resistant Factor", "setting": "[7]; IC50 HEK293/ABCB5 divided by IC50 HEK293", "value": 1.12}, {"measurement": "IC50", "setting": "[8]", "value": 0.902, "unit": "µM"}, {"measurement": "IC50", "setting": "[9]", "value": 1.94, "unit": "µM"}, {"measurement": "IC50", "setting": "[10]", "value": 0.525, "unit": "µM"}]}
